Laboratory results from patent US11085016B1, “Method for screening bacteria capable of degrading ethylene oxide” (priority 2020, dated 2021).

Assays:
[1] = Ethylene oxide tolerance acclimatization: growth on medium plates with increasing ethylene oxide; parameters: key: + normal growth; ± low growth; details: Example 3, carbon source 100%
Procedure: Ethylene oxide tolerance acclimatization medium plates were made as follows: Peptone 10 g, glucose 40 g, agar 15 g, pH adjusted to 5.4-5.8, and filled with distilled water to 1000 mL which was distributed into 250 mL. Sterilization was then performed at 121° C. for 20 min. The medium was heated to melt before use. When the temperature of the medium was cooled down to 50-56° C., 25 mg, 50 mg, 125 mg, and 200 mg of ethylene oxide was added, respectively, by using a sealed injection needle to obtain four ethylene oxide tolerance acclimatization medium plates containing different concentrations of ethylene oxide (100 mg/L, 200 mg/L, 500 mg/L, and 800 mg/L, respectively), named as ethylene oxide tolerance acclimatization medium plate A, ethylene oxide tolerance acclimatization medium plate B, ethylene oxide tolerance acclimatization medium plate C, and ethylene oxide tolerance acclimatization medium plate D, respectively.
(§1) The purified bacteria having a potential for degrading ethylene oxide were streak-inoculated on ethylene oxide tolerance acclimatization medium A, and cultured at a constant temperature of 37° C. for 48 h; a single colony having a largest radius was picked for further inoculation on ethylene oxide tolerance acclimatization medium B, and cultured at a constant temperature of 37° C. for 48 h; a single colony having a largest radius was picked for further inoculation on ethylene oxide tolerance acclimatization medium C, and cultured at a constant temperature of 37° C. for 48 h; a single colony having a largest radius was picked for further inoculation on ethylene oxide tolerance acclimatization medium D, and cultured at a constant temperature of 37° C. for 48 h, to obtain ethylene oxide-tolerant bacteria. Growth situation of the strains on the ethylene oxide tolerance acclimatization medium plates A, B, C, and D are as shown in Table 1.

[2] = Comparative experiment for the degradation of ethylene oxide (gas chromatography); details: Example 3
Procedure: The bacteria having a potential for degrading ethylene oxide which have not been subjected to the acclimatization steps and the strains capable of tolerating and degrading ethylene oxide obtained after the acclimatization steps were inoculated into activation medium, respectively, for activation, and cultured to a bacteria concentration of 10^10-10^12 cfu/mL in the culture.
The activation medium was made as follows: Peptone 10 g, filled with distilled water to 1000 mL which was distributed into 400 mL. Then, sterilization was performed at 121° C. for 20 min. Thereafter, the temperature of the medium was cooled down to RT for storage. 160 mg and 320 mg of ethylene oxide was added, respectively, by using a sealed syringe to obtain two activation media containing different concentrations (400 mg/L and 800 mg/L, respectively) of ethylene oxide for the test of degrading capability of the ethylene oxide-degrading strains.
Comparative experiment for the degradation of ethylene oxide was performed with the following test groups and control group.
Test group 1: 5 mL of an activation culture of the bacteria capable of tolerating and degrading ethylene oxide was inoculated into 400 mL of activation media containing 400 mg/L (1A) and 800 mg/L (1B), respectively, of ethylene oxide. The amount of live bacteria in the medium was 10^8-10^10 cfu/mL.
Test group 2: 5 mL of an activation culture of the bacteria having a potential for degrading ethylene oxide which have not been subjected to the acclimatization steps was inoculated into 400 mL of activation media containing 400 mg/L (2A) and 800 mg/L (2B), respectively, of ethylene oxide. The amount of live bacteria in the medium was 10^8-10^10 cfu/mL.
Control group: 400 mL of activation media containing 400 mg/L (control group A) and 800 mg/L (control group B), respectively, of ethylene oxide with no bacteria strain inoculated.
The test groups and control groups are placed together in an incubated for culturing at 37° C. for 48 h. […] The result of degradation was detected by gas chromatography. […]
the subject samples to be analyzed were prepared by diluting samples from the treatment and control groups 5 times with deionized water;
after the GC instrument is stabilized and under the same conditions, 2 μL each of the ethylene oxide standards and the diluted samples to be analyzed were injected into the GC instrument, wherein each sample was measured twice in parallel;
qualitive determination was conducted according to the retention time and quantitative calculation on each peak area was performed to take the average value; […]
the degradation rate of ethylene oxide for each sample was calculated according to the following formula: Degradation Rate (%)=(Control Group Concentration−Treatment Group Concentration)/Control Group Concentration×100. […]

[3] = Ethylene oxide degradation acclimatization: growth on 800 mg/L ethylene oxide plates with decreasing carbon source; parameters: key: + normal growth; ± low growth
Procedure: Ethylene oxide degradation acclimatization medium plates were made as follows: Peptone 10 g, glucose (20 g, 12 g, 4 g, and 0 g, respectively), agar 15 g, pH adjusted to 5.4-5.8, and filled with distilled water to 1000 mL which was distributed into 250 mL. Sterilization was then performed at 121° C. for 20 min. The medium was heated to melt before use. When the temperature of the medium was cooled down to 50-56° C., 200 mg of ethylene oxide was added by using a sealed injection needle to obtain four ethylene oxide degradation acclimatization medium plates containing different concentrations of carbon source (50%, 30%, 10%, 0%, respectively), named as ethylene oxide degradation acclimatization medium plate A, ethylene oxide degradation acclimatization medium plate B, ethylene oxide degradation acclimatization medium plate C, and ethylene oxide degradation acclimatization medium plate D, respectively.
as §1, with “The ethylene oxide-tolerant” for “The purified”, “bacteria” for “bacteria having a potential for degrading ethylene oxide”, “on Ethylene Oxide Degradation Acclimatization” for “on ethylene oxide tolerance acclimatization”, “48 h; a single colony having a largest radius was picked and preserved on an agar medium bevel containing corresponding nutritional components in Ethylene Oxide Degradation Acclimatization medium D,” for “48 h,”, “ethylene oxide-degrading strains.” for “ethylene oxide-tolerant bacteria.”, “oxide degradation” for “oxide tolerance”

In the case of Lactobacillus, the “Growth, C (100%)/EO(mg/L) 100” value ([1]; EO 100 mg/L) is reported as “+”, the “Growth, C (100%)/EO(mg/L) 200” value ([1]; EO 200 mg/L) is reported as “+” and the “Growth, C (100%)/EO(mg/L) 500” value ([1]; EO 500 mg/L) is reported as “+”. For the same substance, the “Growth, C (100%)/EO(mg/L) 800” value ([1]; EO 800 mg/L) was “+”, the “EO (400 mg/L)/C (0%) Degradation rate (%) After Acc.” value ([2]; EO 400 mg/L, strain after acclimatization) was 75.96% and the “EO (400 mg/L)/C (0%) Degradation rate (%) Before Acc.” value ([2]; EO 400 mg/L, strain before acclimatization) was 17.32%. The “EO (800 mg/L)/C (0%) Degradation rate (%) After Acc.” value ([2]; EO 800 mg/L, strain after acclimatization) was 64.83%, the “EO (800 mg/L)/C (0%) Degradation rate (%) Before Acc.” value ([2]; EO 800 mg/L, strain before acclimatization) was 6.89% and the “Growth, EO (800 mg/L)/ C (%) 0 %” value ([3]; Example 3, carbon source 0%) was “+”. The “Growth, EO (800 mg/L)/ C (%) 10 %” value ([3]; Example 3, carbon source 10%) was “+”, the “Growth, EO (800 mg/L)/ C (%) 30 %” value ([3]; Example 3, carbon source 30%) was “+” and the “Growth, EO (800 mg/L)/ C (%) 50 %” value ([3]; Example 3, carbon source 50%) was “+”.
